What was measured:
ULK1 kinase = target: T1, ULK1 kinase (Homo sapiens, UniProt O75385, E37A/K38A); test: Biochemical assay for ULK1 (coupled pyruvate kinase/lactate dehydrogenase assay); settings: 1 mM ATP, 0.1 nM ULK1; read-out: ULK1 (inhibition of biochemical activity), IC50
T1 construct: (residues 1-283; ID NO: 1); purchased Beryllium
T1 sequence (O75385 1-283 E37A/K38A): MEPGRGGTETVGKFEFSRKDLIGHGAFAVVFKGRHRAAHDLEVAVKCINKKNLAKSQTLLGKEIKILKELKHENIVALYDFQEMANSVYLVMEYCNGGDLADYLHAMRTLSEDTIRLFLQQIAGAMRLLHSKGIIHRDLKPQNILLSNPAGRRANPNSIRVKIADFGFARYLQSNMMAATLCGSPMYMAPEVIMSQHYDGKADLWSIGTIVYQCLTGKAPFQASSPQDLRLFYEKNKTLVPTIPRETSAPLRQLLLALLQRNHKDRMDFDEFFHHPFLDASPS
In short: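 IC50 values were fitted to percent inhibition, normalised with no-compound and known-inhibitor controls, using rates from 2–3 h of a 6 h read at 30 °C. ADP was coupled through pyruvate kinase/lactate dehydrogenase to NADH loss at 340 nm.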

[1] = system: ULK kinase substrate ATG13 (pS318-ATG13) in MiaPaCa-2 cells; test: pATG13 levels of mutant KRas MiaPaCa-2 cells after treatment with ULK inhibitors in combination with trametinib (ELISA); assay type: cell-based, human
In short: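 MiaPaCa-2 cells grown overnight, then dosed with test compound titration plus trametinib (final 250 nM) or DMSO, overnight at 37° C. Lysate pS318-ATG13 measured by sandwich ELISA (total ATG13 capture, biotinylated pS318 detection, HRP/TMB, A450 minus A540); % phosphorylation vs control wells fitted to IC50.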

LRRK2 kinase = target: T2, LRRK2 kinase (Homo sapiens, UniProt Q5S007); test: Biochemical assay for LRRK2 (coupled pyruvate kinase/lactate dehydrogenase assay); settings: 26.4 nM LRRK2, 1 mM ATP; read-out: LRRK2 (inhibition of LRRK2 kinase activity, IC50)
T2 construct: (residues 970-2528; ID NO; 3); purchased Thermo Fisher
Description: Biochemical Assay for LRRK2 (SEQ. ID NO. 3)
Activity of LRRK2 kinase was determined spectroscopically using a coupled pyruvate kinase/lactate dehydrogenase assay that continuously monitors the ATP hydrolysis-dependent oxidation of NADH (e.g., Schindler et al. Science (2000) 289: 1938-1942). Assays were conducted in 384-well plates (100 μL final volume) using 26.4 nM LRRK2 (Thermo Fisher), 0.1 mM peptide substrate (RLGRDKYKTLRQIRQ), 1.5 units pyruvate kinase, 2.1 units lactate dehydrogenase, 1 mM phosphoenol pyruvate, 0.28 mM NADH and 1 mM ATP in assay buffer (100 mM Tris, pH 7.5, 15 mM MgCl2, 0.5 mM DTT, 0.004% (w/v) BSA, and 0.004% Triton X-100). Inhibition of LRRK2 was measured by adding serial diluted test compound (final assay concentration of 1% DMSO). A decrease in absorption at 340 nm was monitored continuously for 6 h at 30° C. on a multi-mode microplate reader (BioTek). The reaction rate was calculated using the 2-3 h time frame. The reaction rate at each concentration of compound was converted to percent inhibition using controls (i.e., reaction with no test compound and reaction with a known inhibitor) and IC50 values were calculated using software routines in Prism (GraphPad software).

T2 sequence (Q5S007 with tags, fused parts or gaps): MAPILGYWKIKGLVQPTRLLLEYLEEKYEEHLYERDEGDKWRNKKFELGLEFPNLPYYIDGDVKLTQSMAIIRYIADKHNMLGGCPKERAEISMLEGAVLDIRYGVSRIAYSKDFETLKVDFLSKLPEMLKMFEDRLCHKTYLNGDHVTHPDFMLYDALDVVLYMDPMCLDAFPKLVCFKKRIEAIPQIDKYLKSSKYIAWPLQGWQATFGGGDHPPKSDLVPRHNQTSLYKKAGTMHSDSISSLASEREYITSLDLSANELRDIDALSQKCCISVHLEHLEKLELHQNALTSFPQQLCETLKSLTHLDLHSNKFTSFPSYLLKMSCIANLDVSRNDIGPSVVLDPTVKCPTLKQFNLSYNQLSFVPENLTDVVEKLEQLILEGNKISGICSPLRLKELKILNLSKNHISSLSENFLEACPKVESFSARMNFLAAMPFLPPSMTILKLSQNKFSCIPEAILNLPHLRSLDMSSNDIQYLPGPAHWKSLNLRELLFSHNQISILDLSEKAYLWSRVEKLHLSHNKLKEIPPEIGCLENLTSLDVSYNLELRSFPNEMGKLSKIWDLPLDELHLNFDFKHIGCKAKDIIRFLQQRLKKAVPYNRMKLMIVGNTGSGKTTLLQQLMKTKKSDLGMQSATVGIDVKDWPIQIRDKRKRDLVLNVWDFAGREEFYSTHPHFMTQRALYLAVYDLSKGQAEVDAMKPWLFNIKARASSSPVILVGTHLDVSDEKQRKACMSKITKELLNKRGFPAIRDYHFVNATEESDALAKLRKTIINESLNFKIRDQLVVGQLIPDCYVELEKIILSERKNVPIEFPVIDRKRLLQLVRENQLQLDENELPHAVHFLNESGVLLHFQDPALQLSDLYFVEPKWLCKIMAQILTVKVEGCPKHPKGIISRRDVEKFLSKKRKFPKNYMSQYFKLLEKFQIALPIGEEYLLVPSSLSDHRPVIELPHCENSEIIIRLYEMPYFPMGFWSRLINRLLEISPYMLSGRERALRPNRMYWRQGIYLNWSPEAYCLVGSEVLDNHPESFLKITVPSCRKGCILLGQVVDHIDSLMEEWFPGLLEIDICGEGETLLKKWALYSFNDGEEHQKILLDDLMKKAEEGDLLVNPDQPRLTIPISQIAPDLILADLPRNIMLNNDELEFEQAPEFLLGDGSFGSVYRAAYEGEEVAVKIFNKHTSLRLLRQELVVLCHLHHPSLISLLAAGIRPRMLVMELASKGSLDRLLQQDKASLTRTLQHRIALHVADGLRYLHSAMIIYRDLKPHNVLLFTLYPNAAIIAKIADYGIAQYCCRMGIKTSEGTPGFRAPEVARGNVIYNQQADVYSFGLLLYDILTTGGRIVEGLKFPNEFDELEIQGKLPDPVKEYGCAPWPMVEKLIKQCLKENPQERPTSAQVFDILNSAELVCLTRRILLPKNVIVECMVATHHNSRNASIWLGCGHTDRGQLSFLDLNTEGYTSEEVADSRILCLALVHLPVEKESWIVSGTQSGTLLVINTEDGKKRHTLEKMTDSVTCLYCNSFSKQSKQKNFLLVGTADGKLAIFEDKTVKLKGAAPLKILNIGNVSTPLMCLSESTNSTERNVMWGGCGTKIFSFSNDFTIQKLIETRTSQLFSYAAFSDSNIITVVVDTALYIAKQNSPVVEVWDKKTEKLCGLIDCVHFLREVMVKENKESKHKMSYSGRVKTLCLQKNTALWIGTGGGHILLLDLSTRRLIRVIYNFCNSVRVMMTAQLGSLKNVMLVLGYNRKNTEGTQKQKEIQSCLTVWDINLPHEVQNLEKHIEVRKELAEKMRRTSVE

IC50 (ULK1 kinase) | IC50 [1] | IC50 (LRRK2 kinase) | SMILES
≤ 10 nM | ≤ 100 nM | 100 to 300 nM | CC/C(Nc1cnn(C2CCN(C(C)C)CC2)c1)=C1/C(=O)Nc2ccc(C(=O)NC[C@H]3CCCO3)cc21 [Example 1, (R,Z)-3-(1-((1-(1-isopropylpiperidin-4-yl)-1H-pyrazol-4-yl)amino)propylidene)-2-oxo-N-((tetrahydrofuran-2-yl)methyl)indoline-5-carboxamide]
10 to 100 nM | ≤ 100 nM |  | CC/C(Nc1ccc(N2C[C@H]3CN(C)C[C@H]3C2)cc1)=C1/C(=O)Nc2ccc(C(=O)NCC(C)C)cc21 [Example 63]
10 to 100 nM | ≤ 100 nM |  | CC/C(Nc1ccc(N2C[C@H]3CN(C)C[C@H]3C2)cc1)=C1/C(=O)Nc2ccc(C(=O)NC[C@H]3CCCO3)cc21 [Example 64]
≤ 10 nM | ≤ 100 nM |  | CC/C(Nc1ccc(N2CC3(CN(C)C3)C2)cc1)=C1/C(=O)Nc2ccc(C(=O)NCC(C)C)cc21 [Example 65]
≤ 10 nM | ≤ 100 nM |  | CC/C(Nc1ccc(N2CC3(CN(C)C3)C2)cc1)=C1/C(=O)Nc2ccc(C(=O)NC[C@H]3CCCO3)cc21 [Example 66]
≤ 10 nM | ≤ 100 nM |  | CC/C(Nc1ccc(N2CC3CC2CN3C)cc1)=C1/C(=O)Nc2ccc(C(=O)NCC(C)C)cc21 (centres unmarked) [Example 69]
≤ 10 nM | ≤ 100 nM |  | CC/C(Nc1ccc(N2CC3CC2CN3C)cc1)=C1/C(=O)Nc2ccc(C(=O)NC[C@H]3CCCO3)cc21 (some centres unmarked) [Example 70]
≤ 10 nM | ≤ 100 nM |  | CC/C(Nc1ccc(N2CC3CC2CN3C)cc1)=C1/C(=O)Nc2ccc(C(=O)NCC(F)(F)F)cc21 (centres unmarked) [Example 71]
10 to 100 nM | ≤ 100 nM |  | CC/C(Nc1ccc(N2CCN(C)CC2)nc1)=C1/C(=O)Nc2ccc(C(=O)NCC(F)(F)F)cc21 [Example 74]
≤ 10 nM | ≤ 100 nM | ≤ 100 nM | CC/C(Nc1ccc(N2CCN(C)CC2)cn1)=C1/C(=O)Nc2ccc(C(=O)NCC(F)(F)F)cc21 [Example 75]
≤ 10 nM | ≤ 100 nM | ≤ 100 nM | CC/C(Nc1cnn(C)c1)=C1/C(=O)Nc2ccc(C(=O)NCC(F)(F)F)cc21 [Example 77]
10 to 100 nM | 100 to 300 nM | ≤ 100 nM | CC/C(Nc1ccc(-c2nc(C)no2)cc1)=C1/C(=O)Nc2ccc(C(=O)NCC(F)(F)F)cc21 [Example 78]
10 to 100 nM | ≤ 100 nM |  | CC/C(Nc1ccc(-c2cn(C)nn2)cc1)=C1/C(=O)Nc2ccc(C(=O)NCC(F)(F)F)cc21 [Example 79]
≤ 10 nM | ≤ 100 nM |  | CC/C(Nc1cnn(C2CCN(C(C)C)CC2)c1)=C1/C(=O)Nc2ccc(C(=O)NC[C@H]3CC(F)(F)CO3)cc21 [Example 80]
≤ 10 nM | ≤ 100 nM |  | CC/C(Nc1cnn(C2CCN(C(C)C)CC2)c1)=C1/C(=O)Nc2ccc(C(=O)NCCOC(F)(F)F)cc21 [Example 82]
≤ 10 nM | ≤ 100 nM |  | CC/C(Nc1cnn(C2CCN(C(C)C)CC2)c1)=C1/C(=O)Nc2ccc(C(=O)NC[C@H]3CCCCO3)cc21 [Example 83]
≤ 10 nM | ≤ 100 nM | ≤ 100 nM | CC/C(Nc1cnn(C2CC3(C2)CN(C)C3)c1)=C1/C(=O)Nc2ccc(C(=O)NCC(F)(F)F)cc21 [Example 84]
10 to 100 nM | 100 to 300 nM | ≤ 100 nM | CC/C(Nc1ccc(N2CC3(COC3)C2)cc1)=C1/C(=O)Nc2ccc(C(=O)NCC(F)(F)F)cc21 [Example 85]
≤ 10 nM | ≤ 100 nM | 100 to 300 nM | CC/C(Nc1cnn(C2CN(C)C2)c1)=C1/C(=O)Nc2ccc(C(=O)NCC(F)(F)F)cc21 [Example 86]
10 to 100 nM | ≤ 100 nM |  | CC/C(Nc1cnn(C2CN(C)C2)c1)=C1/C(=O)Nc2ccc(C(=O)NCC(C)C)cc21 [Example 87]
≤ 10 nM | ≤ 100 nM |  | CC/C(Nc1cnn(C2CN(C3CCC3)C2)c1)=C1/C(=O)Nc2ccc(C(=O)NC[C@H]3CCCO3)cc21 [Example 88]
10 to 100 nM | 100 to 300 nM |  | CC/C(Nc1cnn(C2CN(C)C2)c1)=C1/C(=O)Nc2ccc(C(=O)NCCOC)cc21 [Example 89]
≤ 10 nM | ≤ 100 nM |  | CC/C(Nc1cnn(C2CN(CC)C2)c1)=C1/C(=O)Nc2ccc(C(=O)NC[C@H]3CCCO3)cc21 [Example 90]
≤ 10 nM | ≤ 100 nM |  | CC/C(Nc1cnn(C2CN(C(C)C)C2)c1)=C1/C(=O)Nc2ccc(C(=O)NC[C@H]3CCCO3)cc21 [Example 91]
100 to 500 nM | ≤ 100 nM | 300 to 600 nM | CC/C(Nc1ccc(N2CCN(C(C)C)CC2)cn1)=C1/C(=O)Nc2cc(F)c(C(=O)NCC(F)(F)F)cc21 [Example 92]

SMILES | IC50 (ULK1 kinase) | IC50 [1] | IC50 (LRRK2 kinase)
CC/C(Nc1ccc(N2CC3CC(C2)N3C)cc1)=C1/C(=O)Nc2ccc(C(=O)NCC(C)C)cc21 [Example 67] | ≤ 10 nM | ≤ 100 nM | 
CC/C(Nc1ccc(N2CC3CC(C2)N3C)cc1)=C1/C(=O)Nc2ccc(C(=O)NC[C@H]3CCCO3)cc21 [Example 68] | ≤ 10 nM | ≤ 100 nM | 

From patent US20240150368A1, “ULK INHIBITORS AND METHODS OF USE THEREOF” (Deciphera Pharmaceuticals, LLC, priority 2022, published 2024)
